The subject of one experiment is two-spotted mite. The experiment is described as follows: Small scale field tests, mite control on Tendergreen bean plants. The format is in vivo, Tetranychus urticae (Koch). On the procedure: Selected enol ester compositions were evaluated in small scale field tests to determine whether the excellent miticidal properties observed in greenhouse testing would be obtained under actual conditions of field use.
In Test I 500 ppm aqueous dispersions were prepared as described above. In tests II and III various dilutions of the test compounds ranging from 125 ppm to 1000 ppm were prepared and used. In each case the test dispersions were applied to a minimum of two replicate test plots measuring five feet in length and containing healthy young Tendergreen bean plants which had previously been infested with two-spotted mite (Tetranychus urticae (Koch)). Dispersions of the test compounds at each concentration level were applied to individual replicate plots using 1/2 gallon garden sprayers equipped with spray nozzles to apply approximately 250 ml. of test solution to each replicate. The effectiveness of the treatment was determined at intervals following application, by microscopic examination of five leaves selected at random from each replicate plot. The degree of effectiveness for each leaf was rated on a scale of from 1 to 5 with 1 indicating no control in reference to a standard sprayed with a mixture of solution less test compound and 5 indicating complete control. The results obtained from inspection of sample leaves were then averaged to give a numerical indication of the degree of control for each compound tested at the concentration applied.

The subject of experiment [1] is adults and nymphal stages of the two-spotted mite. Put plainly: Mite Foliage Spray Test. Type of experiment: in vivo, Tetranychus urticae (Koch). Details: key: 1: no mortality; 3: an approximately 50% mortality; 5: 100% mortality. The following applies: 4 days. The text has this: (§1) The test procedures were as follows:
(§2) Compositions were rated on the basis of percent kill with a rating of 1 indicating no mortality; 3 signifying an approximately 50% mortality and 5 indicating 100% mortality at the indicated dosage.

In experiment [2] the test system is egg of the two-spotted mite. The experiment is described as follows: Mite Ovicide Test. Details: key to Mite Ova rating: 1: no mortality; 3: an approximately 50% mortality; 5: 100% mortality. Type of experiment: in vivo, Tetranychus urticae (Koch). The following applies: for Mite Ova rating: spray on eggs, 4 days.
Excerpt: as §1
The plants were allowed to dry thoroughly.
as §2

The test system of experiment [3] is Perennial rye grass, crabgrass, red root pigweed, mustard. The experiment is described as follows: Preliminary Herbicide Seed Germination Test. The settings on record: each rated 1 (no injury) to 5 (no seedlings emerged).
Excerpt: The thus-prepared stock suspension contained 0.5 percent by weight of compound. The test concentrations employed in the tests described hereinbelow were obtained by diluting the stock suspension with water. The test procedures were as follows:
The following seeds were used in this test:
Crabgrass -- Digitaria san-
Mustard -- Brassica pincea var.
Each of above mixtures is rolled separately in 5 gallon containers for approximately one-half hour on ball mill to insure uniform mixing of seeds and soil. For each compound four 3-inch pots are filled with soil to within 11/2 inches of top of pots. To 2 of these pots are added 70 cc. of Mixture I. To the remaining 2 pots are added 70 cc. of Mixture II. The seed-soil mixture is tamped firmly, and the pots are removed to the greenhouse and watered lightly. About 2 hours after planting, 25 milliliters of the test formulation were added to each of 2 pots for each soil-seed mixture; i.e., one replicate of each seed mixture per concentration. An equal volume of a water solution containing acetone and an emulsifier in the same concentration as the herbicidal mixture but without the candidate herbicide is also added to each of the soil-seed mixtures. These pots are used as check or control units. The test compounds are formulated by standard procedure of solution in acetone, addition of an emulsifier, and dilution with water. Tests were conducted on all compositions at low concentration (100 ppm.). Certain compositions were also tested at high concentration (1000 ppm). The pots were held in the greenhouse and watered lightly until results were taken. Ten to twelve days after application of chemical, injury is noted for each species by comparing treated vs. untreated pots. Ratings are made at both the high and the low concentrations (1000 ppm and 100 ppm) according to the following designations:
4 = few seedlings emerged and/or very severe stunting
3 = moderate reduction in stand and/or moderate stunting
2 = very slight reduction in stand and/or slight stunting
1 = no injury; seedlings appear no different with respect to stand or growth than untreated controls
Accordingly, the maximum rating for one test seed species tested at both high and low concentration is 10 and the maximum possible total preemergence rating is 40 (10 for each of the four test seed species). […] In some tests the crabgrass experiment was omitted. In these tests the maximum total rating for species tested at both high and low concentrations is 30 and 15 for species tested only at low concentrations.
Where [4] appears, read: Test I, 500 ppm, 4 days, scale 1 (no control) to 5 (complete control).
The mark [5] stands for this setting: Test I, 500 ppm, 8 days, scale 1 to 5.
The mark [6] stands for this setting: Test II, 250 ppm, 3 days, scale 1 to 5.
Setting [7] is: Test II, 250 ppm, 7 days, scale 1 to 5.
[8] abbreviates: Test II, 500 ppm, 3 days, scale 1 to 5.
Setting [9] is: Test II, 500 ppm, 7 days, scale 1 to 5.
The mark [10] stands for this setting: rating/maximum 40: 100 and 1000 ppm, four species, 10-12 days.
[11] abbreviates: rating/maximum 20: 100 ppm only, four species.
Where [12] appears, read: rating/maximum 15: 100 ppm only, crabgrass omitted.

In the case of `Cc1cc(C)c(C2C(=O)c3ccccc3C2=O)c(C)c1` [Compound A, 2-(2',4',6'-trimethylphenyl)-1,3-indandione, reference compound], the “Average mite control rating, 1st Reading” value in the experiment with two-spotted mite (setting [4]) stood at 1.0; with two-spotted mite (setting [6]), 1.0; in the experiment on two-spotted mite (setting [8]), 2.7; with two-spotted mite (Test III, 250 ppm, 3 days, scale 1 to 5) it was 1.0; with two-spotted mite (Test III, 500 ppm, 3 days, scale 1 to 5), 1.3; in the experiment with two-spotted mite (Test III, 1000 ppm, 3 days, scale 1 to 5), 3.3. Moreover, the “Average mite control rating, 2nd Reading” value with two-spotted mite (setting [5]) was determined as 1.0; with two-spotted mite (setting [7]), 1.3; in the experiment with two-spotted mite (setting [9]) it was 1.7; with two-spotted mite (Test III, 250 ppm, 7 days, scale 1 to 5), 2.0; in the experiment with two-spotted mite (Test III, 500 ppm, 7 days, scale 1 to 5), 1.7; in the experiment on two-spotted mite (Test III, 1000 ppm, 7 days, scale 1 to 5) it was 3.3. Besides, in the experiment on two-spotted mite (Test III, 1000 ppm, 21 days, scale 1 to 5), the “Average mite control rating, 3rd Reading” value is given as 2.3.

Take `O=C(OC1=C(c2c(Cl)cccc2Cl)C(=O)c2ccccc21)c1ccccc1Cl` [3-(2-chlorobenzoyloxy)-2-(2',6'-dichlorophenyl)indone]: the “Mite Adult rating” value in experiment [1] is recorded as 5 (100% mortality). In addition, the “Mite Ova rating” value in experiment [2] is reported as 5 (100% mortality). The “Average mite control rating, 1st Reading” value in the experiment with two-spotted mite (setting [4]) is on record as 3.0. Moreover, the “Average mite control rating, 2nd Reading” value in the experiment on two-spotted mite (setting [5]) was 2.5. The “Herbicide (total preemergence rating)” value in experiment [3] (setting [10]) was 30/40.

Turning to `O=C(OC1=C(c2c(Cl)cccc2Cl)C(=O)c2ccccc21)c1cccc(Cl)c1` [3-(3-Chlorobenzoyloxy)-2-(2',6'-dichlorophenyl)indone], in experiment [1], the “Mite Adult rating” value was 5 (100% mortality). The “Mite Ova rating” value in experiment [2] is 5 (100% mortality). Also, in the experiment with two-spotted mite (setting [4]), the “Average mite control rating, 1st Reading” value was found to be 3.0. Besides, the “Average mite control rating, 2nd Reading” value with two-spotted mite (setting [5]) is recorded as 3.0. Moreover, the “Herbicide (total preemergence rating)” value in experiment [3] (setting [10]) is listed as 32/40.

In the case of `Cc1cc(C)c(C2=C(OC(=O)c3cccc(Cl)c3)c3ccccc3C2=O)c(C)c1` [3-(3-Chlorobenzoyloxy)-2-(2',4',6'-trimethylphenyl)indone], the “Mite Adult rating” value in experiment [1] is given as 5 (100% mortality). Besides, the “Mite Ova rating” value in experiment [2] is reported as 5 (100% mortality). Also, in the experiment with two-spotted mite (setting [4]), the “Average mite control rating, 1st Reading” value is 1.5. Also, the “Average mite control rating, 2nd Reading” value with two-spotted mite (setting [5]) stood at 2.0. Moreover, in experiment [3] (setting [10]), the “Herbicide (total preemergence rating)” value is listed as 29/40.

Take `Cc1cc(C)c(C2=C(OC(=O)c3ccccc3Cl)c3ccccc3C2=O)c(C)c1` [3-(2-Chlorobenzoyloxy)-2-(2',4',6'-trimethylphenyl)indone]: the “Mite Adult rating” value in experiment [1] was 5 (100% mortality). Further, in experiment [2], the “Mite Ova rating” value is recorded as 5 (100% mortality). Also, the “Average mite control rating, 1st Reading” value in the experiment on two-spotted mite (setting [4]) is reported as 2.5. In addition, in experiment [3] (setting [10]), the “Herbicide (total preemergence rating)” value was 32/40.

On to `Cc1cc(C)c(C2=C(OC(=O)N(C)c3ccccc3)c3ccccc3C2=O)c(C)c1` [2-(2',4',6'-Trimethylphenyl)-3-(N-methyl-N-phenylcarbamoyloxy)indone], for which the “Mite Adult rating” value in experiment [1] was found to be 1. Besides, the “Mite Ova rating” value in experiment [2] is listed as 3 (an approximately 50% mortality). Besides, the “Herbicide (total preemergence rating)” value in experiment [3] (setting [11]) was 10/20.

For the compound `Cc1cccc(C)c1C(=O)OC1=C(c2c(Cl)cccc2Cl)C(=O)c2ccccc21` [3-(2,6-Dimethylbenzoyloxy)-2-(2',6'-dichlorophenyl)indone], in experiment [1], the “Mite Adult rating” value came out at 1. In experiment [2] (500 ppm), the Mite ova kill result is “About 20%”. For the same compound, the “Mite Ova rating” value in experiment [2] is 1. Besides, in experiment [3] (setting [11]), the “Herbicide (total preemergence rating)” value is listed as 4/20.

On to `O=C1c2ccccc2C(=O)C1c1c(Cl)cccc1Cl` [Compound B, 2-(2',6'-dichlorophenyl)-1,3-indandione, reference compound], for which the “Average mite control rating, 1st Reading” value in the experiment on two-spotted mite (setting [4]) is listed as 1.5; in the experiment with two-spotted mite (setting [6]) it was 3.7; with two-spotted mite (setting [8]), 3.0; in the experiment on two-spotted mite (Test II, 1000 ppm, 3 days, scale 1 to 5), 2.0. Also, the “Average mite control rating, 2nd Reading” value with two-spotted mite (setting [5]) is given as 2.0; in the experiment on two-spotted mite (setting [7]), 2.3; in the experiment with two-spotted mite (setting [9]), 3.3; in the experiment on two-spotted mite (Test II, 1000 ppm, 7 days, scale 1 to 5), 3.3.

As for `CC(C)(C)C(=O)OC1=C(c2ccccc2Br)C(=O)c2ccccc21` [2-(2'-Bromophenyl)-3-(pivaloyloxy)indone], the “Mite Adult rating” value in experiment [1] is on record as 5 (100% mortality). The “Mite Ova rating” value in experiment [2] is 5 (100% mortality). The “Herbicide (total preemergence rating)” value in experiment [3] (setting [10]) is 14/40.

Consider `O=C(OC1=C(c2c(Cl)cccc2Cl)C(=O)c2ccccc21)c1ccc(Cl)cc1Cl` [3-(2,4-Dichlorobenzoyloxy)-2-(2',6'-dichlorophenyl)indone], for which, in experiment [1], the “Mite Adult rating” value is given as 5 (100% mortality). Besides, in experiment [2], the “Mite Ova rating” value is on record as 5 (100% mortality). Also, the “Herbicide (total preemergence rating)” value in experiment [3] (setting [10]) was 28/40.

For the compound `CC(C)(C)C(=O)OC1=C(c2ccccc2Cl)C(=O)c2ccccc21` [2-(2'-Chlorophenyl)-3-(pivaloyloxy)indone], the “Mite Adult rating” value in experiment [1] is recorded as 5 (100% mortality). The “Mite Ova rating” value in experiment [2] was 5 (100% mortality). Besides, in experiment [3] (setting [10]), the “Herbicide (total preemergence rating)” value was 18/40.

Regarding `CCCCCCCCCCCCC(=O)OC1=C(c2cc(C)ccc2C)C(=O)c2ccccc21` [2-(2',5'-Dimethylphenyl)-3-(tridecanoyloxy)indone], in experiment [1], the “Mite Adult rating” value is 1. In addition, the “Mite Ova rating” value in experiment [2] is 5 (100% mortality). For the same compound, in experiment [3] (setting [11]), the “Herbicide (total preemergence rating)” value is 4/20.

As for `CCCCCCCCCCCCCCCC(=O)OC1=C(c2ccccc2C)C(=O)c2ccccc21` [2-(2'-Methylphenyl)-3-(palmitoyloxy)indone], in experiment [1], the “Mite Adult rating” value was 3 (an approximately 50% mortality). For the same compound, the “Mite Ova rating” value in experiment [2] is 5 (100% mortality). Besides, the “Herbicide (total preemergence rating)” value in experiment [3] (setting [11]) is listed as 4/20.

For `Cc1ccc(C(=O)OC2=C(c3c(C)cc(C)cc3C)C(=O)c3ccccc32)c(C)c1` [3-(2,4-Dimethylbenzoyloxy)-2-(2',4',6'-trimethylphenyl)indone], the “Mite Adult rating” value in experiment [1] is listed as 1. In experiment [2], the “Mite Ova rating” value is reported as 5 (100% mortality). Also, in experiment [3] (setting [12]), the “Herbicide (total preemergence rating)” value is given as 11/15.

As to `Cc1cc(C)c(C(=O)OC2=C(c3c(C)cc(C)cc3C)C(=O)c3ccccc32)c(C)c1` [3-(2,4,6-Trimethylbenzoyloxy)-2-(2',4',6'-trimethylphenyl)indone], in experiment [1], the “Mite Adult rating” value was determined as 1. The “Mite Ova rating” value in experiment [2] came out at 1. Moreover, the “Herbicide (total preemergence rating)” value in experiment [3] (setting [12]) is reported as 10/15.

Consider `Cc1cc(C)c(C2=C(OC(=O)c3c(Cl)cccc3Cl)c3ccccc3C2=O)c(C)c1` [3-(2,6-Dichlorobenzoyloxy)-2-(2',4',6'-trimethylphenyl)indone], for which the “Mite Adult rating” value in experiment [1] is listed as 1. Also, the “Mite Ova rating” value in experiment [2] is recorded as 1. Moreover, in experiment [3] (setting [10]), the “Herbicide (total preemergence rating)” value is 8/40.

Consider `CC(=O)OC1=C(c2ccccc2Br)C(=O)c2ccccc21` [3-Acetoxy-2-(2'-bromophenyl)indone], for which the “Mite Adult rating” value in experiment [1] is reported as 5 (100% mortality). Moreover, the “Mite Ova rating” value in experiment [2] is given as 5 (100% mortality). Besides, the “Herbicide (total preemergence rating)” value in experiment [3] (setting [10]) was 19/40.

For the compound `Cc1ccc(C(=O)OC2=C(c3c(Cl)cccc3Cl)C(=O)c3ccccc32)cc1` [3-(4-Methylbenzoyloxy)-2-(2',6'-dichlorophenyl)indone], the “Mite Adult rating” value in experiment [1] is given as 5 (100% mortality). In addition, the “Mite Ova rating” value in experiment [2] was 5 (100% mortality). In experiment [3] (rating/maximum 30: 100 and 1000 ppm, crabgrass omitted), the “Herbicide (total preemergence rating)” value is listed as 22/30.

On to `CCC(CC)C(=O)OC1=C(c2ccc(C(C)C)cc2)C(=O)c2ccccc21` [3-(2-ethylbutanoyloxy)-2-(4'-isopropylphenyl)indone], for which the “Mite Adult rating” value in experiment [1] was determined as 1. Further, the “Mite Ova rating” value in experiment [2] was found to be 1. For the same compound, the “Herbicide (total preemergence rating)” value in experiment [3] (setting [11]) is reported as 4/20.

“3-(Acetoxy)-4(7)-methyl-2-(2',6'-dichlorophenyl)indone”: the “Mite Adult rating” value in experiment [1] is listed as 5 (100% mortality). The “Mite Ova rating” value in experiment [2] is reported as 5 (100% mortality). In addition, the “Herbicide (total preemergence rating)” value in experiment [3] (setting [10]) is 37/40.

Values taken from patent publication US4091006A, “Esters of 3-hydroxyindone compounds” (priority 1975, dated 1978).
